# Experimental data as given in patent publication US8680094B2, “1, 4-benzoxazine compounds and derivatives thereof as therapeutic drugs for the treatment of neurodegenerative conditions” (Board of Regents, The University of Texas System, priority 2008, dated 2014).
# Several values for one entry are separate records, joined by “and”; a condition that tells them apart may be missing. Equal entries are not always repeated.
# Columns and labels:
# CDK6/Cyclin D3 = CDK6/Cyclin D3 (Homo sapiens, UniProt Q00534); assay: In vitro kinase activity; assay type: biochemical; conditions: percentage of control assays without compound, mean of duplicate
# Description: (§1) To better understand the mechanism of action of the compounds of the present invention, but in no way a limitation; the effects of HSB-13 and ASK-2a on 20 different kinases were examined in vitro. At 500 nM concentration, ASK-2a inhibited the kinase activities of GSK3α, GSK3β, p38α, p38β, JNK3, MLK3, and B-Raf substantially. […] As described above, ASK-2a protects cerebellar granule neurons against LK-induced death but is ineffective against HCA-induced toxicity of HT-22 cells. In contrast, HSB-13 is protective in both paradigms. […] Previous studies have established that CDK inhibitors can protect neurons against a number of different apoptotic stimuli.
# (§2) The activity of each kinase was measured in vitro in the presence either 100 nM or 500 nM ASK-2a. Kinase activity is expressed as a percentage of that in control assays (without ASK-2a). The values are mean of assays performed in duplicate. Substantial inhibition of kinase activity (>20%) is in bold type.
# (§3) Table 3: Effect of HSB-13 at 500 nM on 20 different kinases measured in vitro. Kinase activity is expressed as a percentage of that in control assays (without HSB-13). The values are mean of assays performed in duplicate. Substantial inhibition of kinase activity (>20%) is in bold type.
# GSK3β = GSK3β (Homo sapiens, UniProt P49841); assay: In vitro kinase activity; assay type: biochemical; conditions: percentage of control assays without compound, mean of duplicate
# Description: as §1, §2, §3
# p38β = p38β (Homo sapiens, UniProt Q15759); assay: In vitro kinase activity; assay type: biochemical; conditions: percentage of control assays without compound, mean of duplicate
# Description: as §1, §2, §3
# CDK2/Cyclin A1 = CDK2/Cyclin A1 (Homo sapiens, UniProt P24941); assay: In vitro kinase activity; assay type: biochemical; conditions: percentage of control assays without compound, mean of duplicate
# Description: as §1, §2, §3
# DAPK1 = DAPK1 (Homo sapiens, UniProt P53355); assay: In vitro kinase activity; assay type: biochemical; conditions: percentage of control assays without compound, mean of duplicate
# Description: as §1, §2, §3
# CDK4/Cyclin D1 = CDK4/Cyclin D1 (Homo sapiens, UniProt P11802); assay: In vitro kinase activity; assay type: biochemical; conditions: percentage of control assays without compound, mean of duplicate
# Description: as §1, §2, §3
# ROCK1 = ROCK1 (Homo sapiens, UniProt Q13464); assay: In vitro kinase activity; assay type: biochemical; conditions: percentage of control assays without compound, mean of duplicate
# Description: as §1, §2, §3
# ASK1 = biological target: T1, ASK1 (Homo sapiens, UniProt Q99683); assay: In vitro kinase activity; assay type: biochemical; conditions: percentage of control assays without compound, mean of duplicate
# T1 sequence (Q99683 1-1374): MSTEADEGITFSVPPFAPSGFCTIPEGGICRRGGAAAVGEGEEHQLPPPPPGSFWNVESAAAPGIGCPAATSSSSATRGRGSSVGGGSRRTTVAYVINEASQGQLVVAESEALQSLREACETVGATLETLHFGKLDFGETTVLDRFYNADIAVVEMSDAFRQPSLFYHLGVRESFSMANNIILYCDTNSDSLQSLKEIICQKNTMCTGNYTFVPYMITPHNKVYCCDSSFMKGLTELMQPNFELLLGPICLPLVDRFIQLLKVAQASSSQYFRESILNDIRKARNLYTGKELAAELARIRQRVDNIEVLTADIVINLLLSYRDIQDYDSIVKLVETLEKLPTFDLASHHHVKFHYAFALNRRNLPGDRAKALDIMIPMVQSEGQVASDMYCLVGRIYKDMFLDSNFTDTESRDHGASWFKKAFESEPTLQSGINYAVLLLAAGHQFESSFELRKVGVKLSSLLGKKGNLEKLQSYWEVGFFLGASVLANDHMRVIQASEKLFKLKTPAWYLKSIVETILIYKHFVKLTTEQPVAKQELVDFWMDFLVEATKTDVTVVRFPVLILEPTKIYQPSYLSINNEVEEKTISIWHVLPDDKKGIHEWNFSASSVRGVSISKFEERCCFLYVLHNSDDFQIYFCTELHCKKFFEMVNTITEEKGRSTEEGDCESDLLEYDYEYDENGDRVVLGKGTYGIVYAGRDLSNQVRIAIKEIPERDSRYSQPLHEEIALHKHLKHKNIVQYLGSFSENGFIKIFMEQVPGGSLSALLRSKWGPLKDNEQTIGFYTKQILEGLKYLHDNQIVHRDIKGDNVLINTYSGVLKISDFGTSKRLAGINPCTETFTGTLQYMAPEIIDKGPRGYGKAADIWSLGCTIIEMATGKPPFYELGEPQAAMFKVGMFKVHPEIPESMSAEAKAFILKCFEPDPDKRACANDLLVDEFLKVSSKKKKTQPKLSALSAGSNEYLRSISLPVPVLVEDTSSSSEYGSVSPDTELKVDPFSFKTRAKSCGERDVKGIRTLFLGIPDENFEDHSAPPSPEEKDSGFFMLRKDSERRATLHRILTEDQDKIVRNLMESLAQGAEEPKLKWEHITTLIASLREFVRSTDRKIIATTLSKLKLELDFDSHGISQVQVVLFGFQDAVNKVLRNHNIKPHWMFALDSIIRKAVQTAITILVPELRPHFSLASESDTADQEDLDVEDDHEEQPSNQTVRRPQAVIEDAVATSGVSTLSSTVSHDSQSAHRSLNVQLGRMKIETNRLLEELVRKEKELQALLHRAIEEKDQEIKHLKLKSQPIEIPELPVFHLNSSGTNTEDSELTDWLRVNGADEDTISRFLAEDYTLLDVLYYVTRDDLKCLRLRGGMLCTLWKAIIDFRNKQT
# Description: as §1, §2, §3
# GSK3α = GSK3α (Homo sapiens, UniProt P49840); assay: In vitro kinase activity; assay type: biochemical; conditions: percentage of control assays without compound, mean of duplicate
# Description: as §1, §2, §3
# [1] = test system: flies expressing human APP695; assay: APP695-induced toxicity in Drosophila (survival of flies); assay type: in vivo
# Description: Survival of flies expressing human APP695 compared to controls. […] Bars indicate mean±SEM. FIG. 8 is an image showing HSB-13 protects HT-22 cells against HCA-induced toxicity. HT-22 cells were treated with no additives (Control), 2 mM HCA, or 2 mM HCA+25 μM HSB-13. The appearance of the cultures at 24 hours after treatment is shown.
# Expression of human APP695 was induced ubiquitously by crossing transgenic flies carrying a UAS-APP695 construct (Fossgreen et al., 1998) with flies containing an actin-GAL4 promoter using the UAS/GAL4 system (Brand and Perrimon, 1993). Flies were raised at 25° C. in the dark on 10% yeast paste containing different concentrations of HSB-13 (0, 2.5, 5, and 50 μM). The percentage of surviving APP695-expressing progeny was determined by comparing them to control progeny carrying no promoter construct obtained in the same cross and therefore raised under identical conditions as described previously (Greeve et al., 2004).
# [2] = 100 nM, listed as ASK2a, 0.1 µM
# Sequence of GSK3β (P49841 whole entry, species assumed): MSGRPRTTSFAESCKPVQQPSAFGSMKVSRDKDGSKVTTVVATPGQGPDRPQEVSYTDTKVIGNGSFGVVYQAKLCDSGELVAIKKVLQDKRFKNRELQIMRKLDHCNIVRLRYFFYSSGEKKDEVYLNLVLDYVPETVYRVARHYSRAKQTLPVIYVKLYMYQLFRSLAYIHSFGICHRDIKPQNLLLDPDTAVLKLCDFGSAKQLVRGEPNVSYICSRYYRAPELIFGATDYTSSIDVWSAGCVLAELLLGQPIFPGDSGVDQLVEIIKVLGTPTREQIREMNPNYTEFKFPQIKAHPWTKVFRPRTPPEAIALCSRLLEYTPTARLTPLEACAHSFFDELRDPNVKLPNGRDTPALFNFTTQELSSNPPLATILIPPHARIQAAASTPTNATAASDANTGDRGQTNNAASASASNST
# Sequence of p38β (Q15759 whole entry): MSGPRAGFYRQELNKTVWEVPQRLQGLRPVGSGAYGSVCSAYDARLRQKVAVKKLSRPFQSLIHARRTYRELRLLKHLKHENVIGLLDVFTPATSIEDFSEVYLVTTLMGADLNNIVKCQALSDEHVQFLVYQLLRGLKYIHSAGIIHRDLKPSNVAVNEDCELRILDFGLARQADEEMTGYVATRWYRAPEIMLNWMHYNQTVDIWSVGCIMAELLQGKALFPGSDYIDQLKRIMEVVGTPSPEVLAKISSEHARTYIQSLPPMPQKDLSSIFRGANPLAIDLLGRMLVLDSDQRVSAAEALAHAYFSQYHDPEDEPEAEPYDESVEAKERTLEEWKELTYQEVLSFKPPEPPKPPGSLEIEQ
# Sequence of ROCK1 (Q13464 whole entry, species assumed): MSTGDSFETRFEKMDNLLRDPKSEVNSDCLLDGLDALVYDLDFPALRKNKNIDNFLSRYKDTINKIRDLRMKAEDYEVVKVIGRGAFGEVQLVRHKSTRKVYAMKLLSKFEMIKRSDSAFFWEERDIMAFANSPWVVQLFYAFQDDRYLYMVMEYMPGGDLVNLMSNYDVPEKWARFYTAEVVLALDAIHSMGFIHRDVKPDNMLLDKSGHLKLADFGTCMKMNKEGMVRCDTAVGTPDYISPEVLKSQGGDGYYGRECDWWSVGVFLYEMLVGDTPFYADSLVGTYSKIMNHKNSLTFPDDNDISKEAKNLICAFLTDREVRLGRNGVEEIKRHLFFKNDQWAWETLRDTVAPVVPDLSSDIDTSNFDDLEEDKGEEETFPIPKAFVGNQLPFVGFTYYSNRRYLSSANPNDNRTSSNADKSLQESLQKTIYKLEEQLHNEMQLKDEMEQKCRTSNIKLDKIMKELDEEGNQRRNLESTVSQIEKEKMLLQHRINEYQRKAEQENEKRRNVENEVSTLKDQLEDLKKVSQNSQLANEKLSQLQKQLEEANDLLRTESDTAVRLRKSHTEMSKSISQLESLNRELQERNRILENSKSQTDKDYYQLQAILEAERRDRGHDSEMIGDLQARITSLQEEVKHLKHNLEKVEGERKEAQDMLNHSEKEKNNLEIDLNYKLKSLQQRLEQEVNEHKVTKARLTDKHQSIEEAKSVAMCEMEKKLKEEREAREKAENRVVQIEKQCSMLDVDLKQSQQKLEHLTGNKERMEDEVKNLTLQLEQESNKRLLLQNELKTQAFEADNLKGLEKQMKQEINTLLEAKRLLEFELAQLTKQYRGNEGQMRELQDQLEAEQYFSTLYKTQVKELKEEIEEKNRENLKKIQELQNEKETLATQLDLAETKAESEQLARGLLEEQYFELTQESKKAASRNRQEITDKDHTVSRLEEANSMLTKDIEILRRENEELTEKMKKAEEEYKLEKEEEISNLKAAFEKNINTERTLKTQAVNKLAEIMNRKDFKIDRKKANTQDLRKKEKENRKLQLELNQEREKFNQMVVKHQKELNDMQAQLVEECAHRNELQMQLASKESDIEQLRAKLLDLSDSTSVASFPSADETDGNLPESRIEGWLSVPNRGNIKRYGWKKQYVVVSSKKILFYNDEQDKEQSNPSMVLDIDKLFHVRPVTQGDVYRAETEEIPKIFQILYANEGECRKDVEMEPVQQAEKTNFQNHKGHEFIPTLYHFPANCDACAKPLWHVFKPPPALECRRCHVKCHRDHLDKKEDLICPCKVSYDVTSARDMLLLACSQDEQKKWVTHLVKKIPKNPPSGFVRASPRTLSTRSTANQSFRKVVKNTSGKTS
# Sequence of DAPK1 (P53355 whole entry, species assumed): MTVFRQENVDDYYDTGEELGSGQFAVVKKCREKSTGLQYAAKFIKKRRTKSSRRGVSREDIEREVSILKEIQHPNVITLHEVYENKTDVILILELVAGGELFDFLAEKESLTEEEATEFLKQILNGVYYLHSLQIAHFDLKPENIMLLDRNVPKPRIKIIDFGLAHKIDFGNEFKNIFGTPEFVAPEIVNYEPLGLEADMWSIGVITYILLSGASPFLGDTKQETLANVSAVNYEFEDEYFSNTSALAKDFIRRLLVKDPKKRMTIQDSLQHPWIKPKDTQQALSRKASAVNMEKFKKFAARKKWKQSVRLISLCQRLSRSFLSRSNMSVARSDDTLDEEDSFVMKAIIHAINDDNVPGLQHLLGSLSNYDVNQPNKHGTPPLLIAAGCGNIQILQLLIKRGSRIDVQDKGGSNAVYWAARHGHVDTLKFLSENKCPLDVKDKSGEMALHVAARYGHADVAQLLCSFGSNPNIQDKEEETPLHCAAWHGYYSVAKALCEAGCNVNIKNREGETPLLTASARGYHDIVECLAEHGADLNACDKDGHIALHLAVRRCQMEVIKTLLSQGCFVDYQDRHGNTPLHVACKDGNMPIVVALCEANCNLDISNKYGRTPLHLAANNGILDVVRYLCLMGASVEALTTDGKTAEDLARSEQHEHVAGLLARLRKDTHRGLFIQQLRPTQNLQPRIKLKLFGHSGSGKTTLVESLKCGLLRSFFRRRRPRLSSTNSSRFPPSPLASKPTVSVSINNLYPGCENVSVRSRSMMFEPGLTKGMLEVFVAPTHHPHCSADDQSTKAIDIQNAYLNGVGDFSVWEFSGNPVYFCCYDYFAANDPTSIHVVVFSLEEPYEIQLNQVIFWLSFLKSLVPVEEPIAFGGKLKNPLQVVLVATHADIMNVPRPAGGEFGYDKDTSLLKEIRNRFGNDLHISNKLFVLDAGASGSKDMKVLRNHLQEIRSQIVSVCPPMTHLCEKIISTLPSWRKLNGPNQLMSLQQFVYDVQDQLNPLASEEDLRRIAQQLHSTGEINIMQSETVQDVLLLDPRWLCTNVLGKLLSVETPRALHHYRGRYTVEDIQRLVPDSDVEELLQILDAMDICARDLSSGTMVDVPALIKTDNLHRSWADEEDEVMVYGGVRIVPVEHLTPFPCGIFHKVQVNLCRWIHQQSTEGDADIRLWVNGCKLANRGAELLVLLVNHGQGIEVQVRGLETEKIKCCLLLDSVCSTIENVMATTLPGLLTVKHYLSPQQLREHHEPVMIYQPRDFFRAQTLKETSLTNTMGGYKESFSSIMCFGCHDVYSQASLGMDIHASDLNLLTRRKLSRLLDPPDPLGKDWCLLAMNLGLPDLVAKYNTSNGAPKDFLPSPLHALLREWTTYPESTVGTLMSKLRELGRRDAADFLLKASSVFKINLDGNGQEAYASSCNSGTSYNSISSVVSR
# Sequence of CDK4/Cyclin D1 (P11802 whole entry, species assumed): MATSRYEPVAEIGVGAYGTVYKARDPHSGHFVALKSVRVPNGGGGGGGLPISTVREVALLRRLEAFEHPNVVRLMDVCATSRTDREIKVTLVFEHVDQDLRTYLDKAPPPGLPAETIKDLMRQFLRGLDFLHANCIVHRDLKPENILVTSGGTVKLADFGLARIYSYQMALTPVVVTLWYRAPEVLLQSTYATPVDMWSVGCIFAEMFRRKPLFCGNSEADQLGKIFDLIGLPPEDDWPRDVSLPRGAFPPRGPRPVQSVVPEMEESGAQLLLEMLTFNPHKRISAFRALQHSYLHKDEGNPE
# Sequence of CDK4/Cyclin D1 (P24385 whole entry partner, species assumed): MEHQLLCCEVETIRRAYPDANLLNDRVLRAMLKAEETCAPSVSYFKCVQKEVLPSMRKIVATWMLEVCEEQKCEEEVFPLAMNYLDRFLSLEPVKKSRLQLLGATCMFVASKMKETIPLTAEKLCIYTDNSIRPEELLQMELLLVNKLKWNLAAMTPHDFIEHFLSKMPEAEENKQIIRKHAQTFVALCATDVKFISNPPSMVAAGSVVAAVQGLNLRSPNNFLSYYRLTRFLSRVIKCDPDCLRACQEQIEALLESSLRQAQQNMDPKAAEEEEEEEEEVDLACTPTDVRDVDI
# Sequence of GSK3α (P49840 whole entry, species assumed): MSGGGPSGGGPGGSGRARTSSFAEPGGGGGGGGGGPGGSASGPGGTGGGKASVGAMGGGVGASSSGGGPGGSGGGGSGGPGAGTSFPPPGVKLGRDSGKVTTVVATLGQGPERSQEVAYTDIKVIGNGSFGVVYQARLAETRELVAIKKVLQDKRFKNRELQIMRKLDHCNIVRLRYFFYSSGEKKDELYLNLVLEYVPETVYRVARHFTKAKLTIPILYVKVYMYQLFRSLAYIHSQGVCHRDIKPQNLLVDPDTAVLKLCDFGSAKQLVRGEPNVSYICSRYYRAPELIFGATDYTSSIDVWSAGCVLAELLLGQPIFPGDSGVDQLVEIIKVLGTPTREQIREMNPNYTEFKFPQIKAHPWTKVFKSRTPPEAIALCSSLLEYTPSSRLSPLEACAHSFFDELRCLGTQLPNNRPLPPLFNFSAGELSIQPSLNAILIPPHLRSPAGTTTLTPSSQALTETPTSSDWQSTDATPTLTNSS
Compound,% ACTIVITY (CDK6/Cyclin D3; 100 nM) [%],% ACTIVITY (CDK6/Cyclin D3; 500 nM) [%],% ACTIVITY (CDK2/Cyclin A1; 100 nM) [%],% ACTIVITY (DAPK1; 100 nM) [%],% ACTIVITY (DAPK1; 500 nM) [%],% ACTIVITY (CDK4/Cyclin D1; 100 nM) [%],% ACTIVITY (CDK4/Cyclin D1; 500 nM) [%],% ACTIVITY (ROCK1; 100 nM) [%],% ACTIVITY (ASK1; 100 nM) [%],% ACTIVITY (ASK1; 500 nM) [%],other results
O=C1Nc2ccccc2OC1=Cc1cc(Br)c(O)c(Br)c1 [ASK-2a],104,99,104,98,95,93,97,96,104,97,"% ACTIVITY (GSK3β; 100 nM, 0.1 µM): 55%; % ACTIVITY (GSK3β; [2]): inhibited efficiently; % ACTIVITY (p38β; 100 nM, 0.1 µM): 33%; % ACTIVITY (p38β; [2]): inhibited efficiently; % ACTIVITY (CDK2/Cyclin A1; 500 nM): 100%; % ACTIVITY (ROCK1; 500 nM): 98%; % ACTIVITY (GSK3α; 100 nM, 0.1 µM): 71%; % ACTIVITY (GSK3α; [2]): inhibited efficiently"
"Nc1ccc2c(c1)NC(=O)/C(=C/c1cc(Br)c(O)c(Br)c1)O2 [HSB-13, (Z)-6-amino-2-(3,′5′-dibromo-4′-hydrozybenzylidene)-2H-benzo[b][1,4]oxazin-3(4H)-one]",99,89,82,96,84,103,88,91,104,95,"survival rate compared to untreated flies ([1]; food containing HSB-13, all p-values<0.05): approximately 10 times; survival rate of APP-expressing flies compared to equally treated control flies ([1]; raised on food containing HSB-13, printed as 65% at 50 μM to 44% at 50 μM, untreated about 5%): 65% and 44%; % ACTIVITY (GSK3β; 500 nM): 19%; % ACTIVITY (p38β; 500 nM): 10%; % ACTIVITY (GSK3α; 500 nM): 23%"
